Data from US20190119282A1, “IMIDAZOPYRIDAZINES USEFUL AS INHIBITORS OF THE PAR-2 SIGNALING PATHWAY” (Vertex Pharmaceuticals Incorporated, priority 2013, published 2019).
One block for each molecule: values may come before it.

What was measured:
[1] = molecular target: T1, PAR2 (HT-29 cells, trypsin activation) (Homo sapiens, UniProt P55085); assay: Ca FLIPR TETRA assay, ANTAGONIST mode, stimulation with 3.1 U/mL trypsin; assay type: cell-based; details: HT-29 cells, stimulation with 3.1 U/mL trypsin
T1 construct: host or cells: HT-29 cells
T1 sequence (P55085 26-397): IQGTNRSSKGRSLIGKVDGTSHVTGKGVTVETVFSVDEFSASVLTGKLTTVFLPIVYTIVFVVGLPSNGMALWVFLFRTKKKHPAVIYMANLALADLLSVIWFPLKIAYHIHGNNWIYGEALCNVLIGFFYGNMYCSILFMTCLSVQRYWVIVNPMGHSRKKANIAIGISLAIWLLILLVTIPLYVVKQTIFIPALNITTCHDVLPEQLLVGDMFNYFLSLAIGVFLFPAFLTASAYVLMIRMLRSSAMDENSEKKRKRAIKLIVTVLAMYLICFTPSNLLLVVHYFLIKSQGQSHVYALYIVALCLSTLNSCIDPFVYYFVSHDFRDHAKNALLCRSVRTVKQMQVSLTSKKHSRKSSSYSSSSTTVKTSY
Summary of the method: (§1)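 HT-29 cells in 1% FBS/McCoy's overnight, loaded with Calcium 5 dye; compounds added and read first for intrinsic Ca2+ activation, then incubated 30 min at r.t. Antagonism read on FLIPR Tetra after stimulation with final 8 μM SLIGKV, 3.1 U/mL trypsin, 1 U/mL thrombin or 0.6 μM UTP.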

[2] = tested on: UTP-stimulated Ca2+ response in HT-29 cells; assay: Ca FLIPR TETRA assay, ANTAGONIST mode, stimulation with 0.6 μM UTP; assay type: cell-based, human; details: Homo sapiens; HT-29 cells, stimulation with 0.6 μM UTP
Summary of the method: as §1

[3] = tested on: Thrombin-stimulated Ca2+ response in HT-29 cells; assay: Ca FLIPR TETRA assay, ANTAGONIST mode, stimulation with 1 U/mL Thrombin; assay type: cell-based, human; details: Homo sapiens; HT-29 cells, stimulation with 1 U/mL Thrombin
Summary of the method: as §1

[4] = molecular target: T2, PAR2 (HT-29 cells, SLIGKV activation) (Homo sapiens, UniProt P55085); assay: Ca FLIPR TETRA assay, ANTAGONIST mode, stimulation with 8 μM SLIGKV; assay type: cell-based; details: HT-29 cells, stimulation with 8 μM SLIGKV
T2 construct: host or cells: HT-29 cells
T2 sequence (P55085 26-397): T1 sequence (P55085 26-397)
Summary of the method: as §1

SMILES: CCC(C)(O)CC(=O)N1CCN(C(=O)c2cn3nc(-c4ccc(F)cc4)cc(C(C)C)c3n2)C[C@@H]1C (some centres unmarked) [Compound I-146]
IC50 [1]: 1 µM
IC50 [2]: 19 µM
IC50 [3]: 20 µM
IC50 [4]: 0.016 µM

SMILES: CC(C)c1cc(-c2ccc(F)cc2)nn2cc(C(=O)N3CCN(C(=O)C4(NC(=O)OC(C)(C)C)CC4)[C@@H](C)C3)nc12 [Compound I-148]
IC50 [1]: 0.096 µM
IC50 [2]: 39 µM
IC50 [3]: > 50 µM
IC50 [4]: 0.052 µM

SMILES: CC(C)c1cc(-c2ccc(F)cc2)nn2cc(C(=O)N3CCN(C(=O)C4(NC(=O)OC(C)(C)C)CCC4)[C@@H](C)C3)nc12 [Compound I-149]
IC50 [1]: 0.057 µM
IC50 [2]: > 50 µM
IC50 [3]: > 50 µM
IC50 [4]: 0.03 µM

SMILES: CC(C)c1cc(-c2ccc(F)cc2)nn2cc(C(=O)N3CCN(C(=O)C4(NC(=O)OC(C)(C)C)CCCCC4)[C@@H](C)C3)nc12 [Compound I-150]
IC50 [1]: 0.23 µM
IC50 [2]: 84 µM
IC50 [3]: > 50 µM
IC50 [4]: 0.074 µM

SMILES: CC(C)c1cc(-c2ccc(F)cc2)nn2cc(C(=O)N3CCN(C(=O)C(C)(C)NC(=O)OCc4ccccc4)[C@@H](C)C3)nc12 [Compound I-151]
IC50 [1]: 0.16 µM
IC50 [2]: > 50 µM
IC50 [3]: > 50 µM
IC50 [4]: 0.063 µM

SMILES: CC(C)c1cc(-c2ccc(F)cc2)nn2cc(C(=O)N3CCN(C(=O)C4(N)CC4)[C@@H](C)C3)nc12 [Compound I-154]
IC50 [1]: 6.4 µM
IC50 [2]: > 50 µM
IC50 [3]: > 50 µM
IC50 [4]: 1.4 µM

SMILES: CC(C)c1cc(-c2ccc(F)cc2)nn2cc(C(=O)N3CCN(C(=O)C4(N)CCC4)[C@@H](C)C3)nc12 [Compound I-155]
IC50 [1]: 3.5 µM
IC50 [2]: 25 µM
IC50 [3]: 27 µM
IC50 [4]: 0.8 µM

SMILES: CC(C)c1cc(-c2ccc(F)cc2)nn2cc(C(=O)N3CCN(C(=O)C4(N)CCCCC4)[C@@H](C)C3)nc12 [Compound I-156]
IC50 [1]: 6.8 µM
IC50 [2]: 17 µM
IC50 [3]: 21 µM
IC50 [4]: 1.4 µM

SMILES: CC(C)c1cc(-c2ccc(F)cc2)nn2cc(C(=O)N3CCN(C(=O)C(C)(C)N)[C@@H](C)C3)nc12 [Compound I-157]
IC50 [1]: 14 µM
IC50 [2]: 38 µM
IC50 [3]: 40 µM
IC50 [4]: 5.7 µM

SMILES: Cc1cc(-c2ccc(F)cc2)nn2cc(C(=O)N3CCN(C(=O)C(C)(C)O)[C@@H](C)C3)nc12 [Compound I-158]
IC50 [1]: 26 µM
IC50 [2]: 67 µM
IC50 [3]: 77 µM
IC50 [4]: 9.1 µM

SMILES: Cc1cc(-c2ccc(F)cc2)nn2cc(C(=O)N3CCN(C(=O)C4(O)CCC4)[C@@H](C)C3)nc12 [Compound I-159]
IC50 [1]: 17 µM
IC50 [2]: 36 µM
IC50 [3]: 42 µM
IC50 [4]: 7.3 µM

SMILES: C=CC(=O)N1CCN(C(=O)c2cn3nc(-c4ccc(F)cc4)cc(C(C)C)c3n2)C(C)(C)C1 [Compound I-160]
IC50 [1]: 0.041 µM
IC50 [2]: 14 µM
IC50 [3]: 7.9 µM
IC50 [4]: 0.01 µM

SMILES: CCc1cc(-c2ccc(F)cc2)nn2cc(C(=O)N3CCN(C(=O)C(C)(C)O)CC3(C)C)nc12 [Compound I-161]
IC50 [1]: 0.33 µM
IC50 [2]: 72 µM
IC50 [3]: 140 µM
IC50 [4]: 0.2 µM

SMILES: CCc1cc(-c2ccc(F)cc2)nn2cc(C(=O)N3CCN(C(=O)C4(O)CCC4)CC3(C)C)nc12 [Compound I-162]
IC50 [1]: 0.16 µM
IC50 [2]: 35 µM
IC50 [3]: 35 µM
IC50 [4]: 0.11 µM

SMILES: CCc1cc(-c2ccc(F)cc2)nn2cc(C(=O)N3CCN(C(=O)Cc4ccncc4)[C@@H](C)C3)nc12 [Compound I-163]
IC50 [1]: 1.7 µM
IC50 [2]: 13 µM
IC50 [3]: 12 µM
IC50 [4]: 0.64 µM

SMILES: CCc1cc(-c2ccc(F)cc2)nn2cc(C(=O)N3CCN(C(=O)CC4CCOCC4)[C@@H](C)C3)nc12 [Compound I-164]
IC50 [1]: 2 µM
IC50 [2]: 54 µM
IC50 [3]: 54 µM
IC50 [4]: 0.2 µM

SMILES: CCc1cc(-c2ccc(F)cc2)nn2cc(C(=O)N3CCN(C(=O)[C@H](O)CC(C)(C)C)CC3(C)C)nc12 [Compound I-165]
IC50 [1]: 0.002 µM
IC50 [2]: 8 µM
IC50 [3]: 7.4 µM
IC50 [4]: 0.001 µM

SMILES: CCc1cc(-c2ccc(F)cc2)nn2cc(C(=O)N3CCN(C(=O)[C@H](O)CC4CC4)CC3(C)C)nc12 [Compound I-173]
IC50 [1]: 0.013 µM
IC50 [2]: 23 µM
IC50 [3]: 20 µM
IC50 [4]: 0.008 µM

SMILES: CC(C)c1cc(-c2ccc(F)cc2)nn2cc(C(=O)N3CCN(C(=O)C(C)(C)O)CC3(C)C)nc12 [Compound I-174]
IC50 [1]: 0.055 µM
IC50 [2]: 38 µM
IC50 [3]: 35 µM
IC50 [4]: 0.028 µM

SMILES: CC(O)C(=O)N1CCN(C(=O)c2cn3nc(-c4ccc(F)cc4)cc(C(C)C)c3n2)C(C)(C)C1 (centres unmarked) [Compound I-175]
IC50 [1]: 0.06 µM
IC50 [2]: 34 µM
IC50 [3]: 41 µM
IC50 [4]: 0.023 µM

SMILES: CC(C)c1cc(-c2ccc(F)cc2)nn2cc(C(=O)N3CCN(C(=O)C(O)C(C)C)CC3(C)C)nc12 (centres unmarked) [Compound I-176]
IC50 [1]: 0.011 µM
IC50 [2]: 17 µM
IC50 [3]: 14 µM
IC50 [4]: 0.006 µM

SMILES: CC(C)c1cc(-c2ccc(F)cc2)nn2cc(C(=O)N3CCN(C(=O)[C@H]4CCC(=O)N4)CC3(C)C)nc12 [Compound I-177]
IC50 [1]: 0.082 µM
IC50 [2]: 40 µM
IC50 [3]: 35 µM
IC50 [4]: 0.048 µM

More lines, now with the values ahead:

IC50 [1]: 0.061 µM
IC50 [2]: 6.6 µM
IC50 [3]: 8 µM
IC50 [4]: 0.006 µM
SMILES: CCCCC(=O)N1CCN(C(=O)c2cn3nc(-c4ccc(F)cc4)cc(C(C)C)c3n2)C[C@@H]1C [Compound I-147]

IC50 [1]: 0.054 µM
IC50 [2]: 10 µM
IC50 [3]: 13 µM
IC50 [4]: 0.004 µM
SMILES: CC(C)c1cc(-c2ccc(F)cc2)nn2cc(C(=O)N3CCN(C(=O)[C@H](O)C(C)(C)C)[C@@H](C)C3)nc12 [Compound I-152]

IC50 [1]: 1.45 µM
IC50 [2]: 22 µM
IC50 [3]: 19 µM
IC50 [4]: 0.25 µM
SMILES: Cc1cc(-c2ccc(F)cc2)nn2cc(C(=O)N3CCN(C(=O)[C@H](O)C(C)(C)C)[C@@H](C)C3)nc12 [Compound I-153]

IC50 [1]: 0.053 µM
IC50 [2]: 27 µM
IC50 [3]: 23 µM
IC50 [4]: 0.016 µM
SMILES: CCc1cc(-c2ccc(F)cc2)nn2cc(C(=O)N3CCN(C(=O)[C@H](O)C(C)C)CC3(C)C)nc12 [Compound I-166]

IC50 [1]: 0.002 µM
IC50 [2]: 9.6 µM
IC50 [3]: 8.5 µM
IC50 [4]: 0.002 µM
SMILES: CCc1cc(-c2ccc(F)cc2)nn2cc(C(=O)N3CCN(C(=O)[C@H](O)CC(C)C)CC3(C)C)nc12 [Compound I-167]

IC50 [1]: 0.35 µM
IC50 [2]: 13 µM
IC50 [3]: 16 µM
IC50 [4]: 0.067 µM
SMILES: CCc1cc(-c2ccc(F)cc2)nn2cc(C(=O)N3CCN(C(=O)[C@H](O)C(C)C)[C@@H](C)C3)nc12 [Compound I-168]

IC50 [1]: 0.017 µM
IC50 [2]: 26 µM
IC50 [3]: 25 µM
IC50 [4]: 0.01 µM
SMILES: CCc1cc(-c2ccc(F)cc2)nn2cc(C(=O)N3CCN(C(=O)[C@H](O)CC(C)C)[C@@H](C)C3)nc12 [Compound I-169]

IC50 [1]: 0.038 µM
IC50 [2]: 30 µM
IC50 [3]: 33 µM
IC50 [4]: 0.014 µM
SMILES: CCc1cc(-c2ccc(F)cc2)nn2cc(C(=O)N3CCN(C(=O)[C@H](O)CC4CC4)[C@@H](C)C3)nc12 [Compound I-170]

IC50 [1]: 0.005 µM
IC50 [2]: 15 µM
IC50 [3]: 15 µM
IC50 [4]: 0.003 µM
SMILES: CC(C)c1cc(-c2ccc(F)cc2)nn2cc(C(=O)N3CCN(C(=O)[C@H](O)CC4CC4)[C@@H](C)C3)nc12 [Compound I-171]

IC50 [1]: 0.33 µM
IC50 [2]: 15 µM
IC50 [3]: 15 µM
IC50 [4]: 0.022 µM
SMILES: CCc1cc(-c2ccc(F)cc2)nn2cc(C(=O)N3CCN(C(=O)[C@H](O)C(C)(C)C)[C@@H](C)C3)nc12 [Compound I-172]
